Experimental data reported in PMC11154920 (ACS Omega, 2024).

Tests used:
[1] = Stability of DEM and DEX in rat plasma; assay type: physicochemical
[2] = test system: Cytochrome P450 2D6 (CYP2D6); conditions: cited from earlier work
[3] = test system: cytochrome P450 3A4 (CYP3A4); conditions: cited from earlier work
[4] = cited from earlier work
CYP3A4 = conditions: in vitro; cited from earlier work
[5] = autosampler stability (64 h and 3 min), HQC
[6] = autosampler stability (64 h and 3 min), LQC
[7] = benchtop stability (19 h and 28 min), HQC, rat plasma
[8] = benchtop stability (19 h and 28 min), LQC, rat plasma
[9] = freeze thaw stability (five cycles), HQC
[10] = freeze thaw stability (five cycles), HQC: nominal DEM 302.52, DEX 156.76 ng/mL
[11] = freeze thaw stability (five cycles), LQC
[12] = freeze thaw stability (five cycles), LQC: nominal DEM 0.58, DEX 0.30 ng/mL
[13] = long-term stability (49 days), HQC
[14] = long-term stability (49 days), LQC
[15] = long-term stability (49 days), −70 °C, HQC: nominal DEM 302.52, DEX 156.76 ng/mL
[16] = long-term stability (49 days), −70 °C, LQC: nominal DEM 0.58, DEX 0.30 ng/mL
[17] = processed sample stability (28 h and 21 min), HQC
[18] = processed sample stability (28 h and 21 min), LQC
[19] = wet extract stability (42 h and 12 min), HQC
[20] = wet extract stability (42 h and 12 min), LQC
[21] = wet extract stability (42 h and 12 min), LQC: nominal DEM 0.58, DEX 0.30 ng/mL

COc1ccc2c(c1)[C@]13CCCC[C@@H]1[C@H](C2)N(C)CC3 [DEM, Dextromethorphan]
% difference [1, 5]: 2.32%
% difference [1, 6]: 3.51%
% difference [1, 7]: –0.36%
% difference [1, 8]: 5.29%
% difference [1, 9]: –2.53%
calculated conc. [1, 10]: 293.62 ± 16.24 ng/mL
% difference [1, 11]: 1.72%
calculated conc. [1, 12]: 0.57 ± 0.03 ng/mL
% difference [1, 13]: –0.54%
% difference [1, 14]: 3.51%
calculated conc. [1, 15]: 299.62 ± 9.41 ng/mL
calculated conc. [1, 16]: 0.58 ± 0.03 ng/mL
% difference [1, 17]: 2.35%
% difference [1, 18]: –0.06%
% difference [1, 19]: –0.83%
% difference [1, 20]: 8.86%
calculated conc. [1, 21]: 0.61 ± 0.05 ng/mL
share of metabolism of DEM to DEX by CYP2D6 [2]: 80%
share of metabolism of DEM to 3-methoxymorphinan by CYP3A4 [3]: 90%

CN1CC[C@@]23CCCC[C@@H]2[C@@H]1Cc1ccc(O)cc13 [DEX, dextrorphan]
% difference [1, 5]: –3.41%
% difference [1, 6]: –3.45%
% difference [1, 7]: –0.70%
% difference [1, 8]: 0.00%
% difference [1, 9]: 0.66%
calculated conc. [1, 10]: 156.02 ± 1.22 ng/mL
% difference [1, 11]: 3.45%
calculated conc. [1, 12]: 0.30 ± 0.02 ng/mL
% difference [1, 13]: 0.32%
% difference [1, 14]: 3.45%
calculated conc. [1, 15]: 155.49 ± 7.51 ng/mL
calculated conc. [1, 16]: 0.30 ± 0.02 ng/mL
% difference [1, 17]: –1.99%
% difference [1, 18]: 3.45%
% difference [1, 19]: –0.69%
% difference [1, 20]: 6.90%
calculated conc. [1, 21]: 0.31 ± 0.02 ng/mL
fraction rapidly glucuronidated [4]: 98%

COc1cc2c(cc1O)CC[n+]1cc3c(OC)c(OC)ccc3cc1-2 [M38, jatrorrhizine]
inhibition of CYP3A4 (CYP3A4): reported to inhibit CYP3A4
